# Test results reported in patent US20230137849A1, “USE OF A COMPOUND OF THE DIURETICS CLASS FOR TREATING CANCER” (AZELEAD, priority 2017, published 2023).
# How the values were obtained:
# N-CADHERIN = assay: q-RT-PCR expression of EMT markers in MDA-MB-231 cells under hypoxia: N-CADHERIN; assay type: cell-based, human; conditions: althiazide 100 μM, hypoxic conditions (1% O2), vs control, FIG. 11
# Description: (§1) The cell cultures are carried out on human breast cancer epithelial cell lines MDA-MB-231 (HTB-26™), resulting from metastases present in a pleural effusion of a patient with a mammary adenocarcinoma. This line is used as a triple negative cancer cell model (no expression of ER-type nuclear estrogen receptors, nuclear progesterone receptors or overexpression of the oncogene encoding HER2 protein (Human Epidermal Growth factor Receptor-2).
# (§2) The cells were cultured in DMEM medium (Eurobio, Fance) supplemented with 10% fetal calf serum (FCS) (Eurobio, Fance) at 37° C., 5% CO2. The medium was changed every 3 days.
# (§3) The cells were placed in a controlled atmosphere at 1% oxygen 24 hours before the application of the different treatments.
# (§4) The expression of the mRNAs is measured by the q-RT-PCR method. The cells were seeded at the density of 500,000 cells/well in 6-well plates. After 24 hours at 37° C., 5% CO2 and 1% O2, the medium was renewed and added the various treatments. RNA was isolated using TRI Reagent® (sigma), assayed and retro-transcribed into complementary DNA using the PrimeScript RT Reagent Kit (Takara). The expression levels of the mRNA of the genes of interest were determined by quantitative PCR (LightCycler® 480 Instrument II) with the primers listed in Table 2: […]
# (§5) The results are calculated using the Delta Delta Ct (Δ ΔCt) method.
# MDA-MB-231 cells = assay: Cytotoxicity potentiation test: MTT cell viability of MDA-MB-231 cells, doxorubicin +/- althiazide; assay type: cell-based, human
# Description: as §1
# The cell viability is determined via the IC50 index, measured by the MTT technique (2-(4,5-dimethyl-2-thiazolyl)-3,5-diphenyl-2H-tetrazolium bromide) (Mosmann, 1983). This colorimetric test is based on the reduction of yellow tetrazolium salts into insoluble purple formazan crystals in aqueous solution. The spectrophotometric measurement of the absorbance at 570 nm is directly proportional to the number of viable cells
# The cells were seeded in 96-well plates at a density of 25,000 cells per well. After 24 h of culture at 37° C., 5% CO2 and 1% O2, the medium was renewed and supplemented with increasing doses of doxorubicin+/−althiazide. Cells were incubated for 24 h at 37° C., 5% CO2 and 1% O2. The MDA-MB-231 cells were washed and then incubated for 1 hour at 37° C. with 100 μl of a 0.5 mg/ml MTT solution prepared in culture medium. The formazan crystals were dissolved in […] and the absorbance measured at 570 nm using the Tecan Sunrise spectrophotometer. The IC50 was determined using the Graphpad Prism 5.0 software. The treatments were carried out in triplicate and the manipulation was carried out 5 times.
# The tests are carried out in cell culture in 96-well plates, on the cell line MDA-MB-231. The MDA-MB-231 cells are seeded in 96-well plates at a density of 10,000 cells and incubated 24 h at 37° C., 5% CO2 and 1% O2. The medium is then renewed and added with increasing concentrations of doxorubicin+/−100 μM althiazide. The cells are incubated for an additional 24 hours at 37° C., 5% CO2 and 1% O2. Treatments were made in triplicas and the experiment was repeated 5 times.
# A cell viability test is then performed according to the method described in Materials and methods.
# Results are normalized to the control condition (FIG. 12)
# VIMENTIN = assay: q-RT-PCR expression of EMT markers in MDA-MB-231 cells under hypoxia: VIMENTIN; assay type: cell-based, human; conditions: althiazide 100 μM, hypoxic conditions (1% O2), vs control, FIG. 11
# Description: as §1, §2, §3, §4, §5
# [1] = Solubilization of althiazide and enantiomers without DMSO; assay type: physicochemical; conditions: no DMSO
# Description: Solubilization of althiazide and enantiomers was achieved by solubilization in a solvent of 95% 1M Tris pH 10.8 and supplemented with 5% pure ethanol.
# Althiazide and enantiomers are resuspended at a concentration of 2 mg/ml. Each of the solutions is vortexed for 30 seconds and then placed in an ultrasound bath for a sonication of 5min; this operation is repeated once. The dissolution is complete despite the absence of DMSO.
# The solubilization of althiazide and enantiomers was also obtained by solubilization in a solution consisting of a mixture of 3.7% of NaHCO3, 0.2M and 21% of Na2CO3 0.2M at pH 10.6 and supplemented with pure water. Althiazide and enantiomers are resuspended at a concentration of 2.5 mg/ml. Each of the solutions is vortexed for 30 seconds and then placed in an ultrasound bath for a sonication of 1 min. The dissolution is complete despite the absence of DMSO.
# 4T1 cells = assay type: cell-based, mouse; conditions: highest dose 100 μM, FIG. 8
# Description: The cytotoxicity tests are carried out in cell culture in 96-well plates, on the 4T1 cell line. The cells are maintained in a DMEM culture medium supplemented with 10% fetal calf serum (control condition) or placed in the presence of an MTT solution (3-(4,5-dimethylthiazol-2-yl)-2,5-diphenyl tetrazolium bromide) at 1 mg/ml in DMEM medium supplemented with 10% fetal calf serum (100 μl per well). The cells are incubated at 37° C. and 5% CO2 for 4 hours. The reaction is stopped by the addition of 100 μl of a solution containing 10% of SDS and 0.01 M of HCl. The cells are placed in an incubator at 37° C. and 5% CO2 for 2 hours. The absorbance is measured between 570 and 590 nm. The negative control is performed on a well without cells, containing 200 μl of a 1 mg/ml solution of MTT diluted in DMEM culture medium supplemented with 10% fetal calf serum. The average of the measurements obtained is compared with the control wells: (average value of the compounds treated/average value of the controls)*100=% of the average value.
# The 4T1 cells are derived from tumors of the mammary gland in mice.
# In order to study the cytotoxic effects of althiazide in vitro, we analyze the cell death induced by treatment with althiazide by tetrazolium salt labeling MTT (3-(4,5-dimethylthiazol-2-yl)-2,5-diphenyltetrazolium bromide) on 4T1 cells. The amount of living cells in the well is assayed by spectrometry. The results are compared with those obtained after treatment with the control solution (FIG. 8). In this test, we observe a very low mortality of cells after treatment with althiazide (80% of living cells at the highest dose 100 μM). Cells treated with dasatinib have a much higher mortality rate, at much lower doses (80% live cells at the lowest 10 nM dose and 20% live cells at 100 μM).
# ZEB1 = assay: q-RT-PCR expression of EMT markers in MDA-MB-231 cells under hypoxia: ZEB1; assay type: cell-based, human; conditions: althiazide 100 μM, hypoxic conditions (1% O2), vs control, FIG. 11
# Description: as §1, §2, §3, §4, §5
smiles,measurement,setting,value
C=CCSCC1Nc2cc(Cl)c(S(N)(=O)=O)cc2S(=O)(=O)N1 (racemic) [althiazide],change in expression of N-CADHERIN,N-CADHERIN,−33%
same,reduction of the IC50 of doxorubicin,"MDA-MB-231 cells; 100 μM althiazide added to doxorubicin, 24 h, 1% O2",45%
same,increase of the effects of doxorubicin,"MDA-MB-231 cells; 100 μM althiazide, doxorubicin between 25 and 2.5 μM, FIG. 12",about 15%
same,change in expression of VIMENTIN,VIMENTIN,−22%
same,dissolution,"[1]; 2 mg/ml in 95% 1M Tris pH 10.8 + 5% pure ethanol, vortex and sonication",complete
same,dissolution,[1]; 2.5 mg/ml in 3.7% NaHCO3 0.2M + 21% Na2CO3 0.2M at pH 10.6 and pure water,complete
same,living cells (MTT),4T1 cells,80%
same,change in expression of ZEB1,ZEB1,−14%
